Like-named read-outs stand apart in the source and are kept apart here. *1 amine or outer side, *2 acyl side, *3 side chain or, on linkers, in order; H or OH if unused. Where a SMILES comes first, the peptide text is derived from it. Bridges are numbered along the chain shown (N, C = ends). [ ]: non-standard residue; d: D form. The star is where a group is joined. Leu(3R-O(AcLeu(3R-OH))) = CC(=O)N[C@H](C(=O)O[C@H](C(C)C)[C@H](N)C(=O)O)[C@H](O)C(C)C; Leu(3R-OH,Nα-propionyl) = CCC(=O)N[C@H](C(=O)*)[C@H](O)C(C)C; X1 = CC(C)[C@@H](O[*:3])[C@H](N[*:1])C(=O)[*:2]; NMeT = CN[C@H](C(=O)O)[C@@H](C)O; dPhLac = O=C(O)[C@H](O)Cc1ccccc1; NMeA = CN[C@@H](C)C(=O)O; NMeDha = C=C(NC)C(=O)O

In test [1] the target is T1, mouse Gαq (Mus musculus, UniProt P21279, D130A/E125D/N126V/V129Y/Y128D).
T1 construct: expressed in transfected cells; membrane preparations
T1 sequence (P21279 1-359 E125D/N126V/Y128D/V129Y/D130A): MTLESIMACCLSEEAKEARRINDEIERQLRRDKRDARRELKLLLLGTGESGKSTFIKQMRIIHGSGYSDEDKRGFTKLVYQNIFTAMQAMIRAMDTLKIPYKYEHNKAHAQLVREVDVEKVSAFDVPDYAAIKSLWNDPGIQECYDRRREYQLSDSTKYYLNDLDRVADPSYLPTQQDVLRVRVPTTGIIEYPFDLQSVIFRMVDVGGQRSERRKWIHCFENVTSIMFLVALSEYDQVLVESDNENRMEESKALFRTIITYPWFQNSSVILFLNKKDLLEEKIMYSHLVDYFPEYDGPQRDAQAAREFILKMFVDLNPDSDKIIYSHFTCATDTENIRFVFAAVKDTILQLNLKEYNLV
Kind of test: Competition binding at membranes of HEK-CRISPR-Cas9-Gαq-KO cells expressing Gαq. As to the method:
(§1) cDNAs encoding for the α‐subunits of the human G11, G14, G15 and mouse Gq guanine nucleotide‐binding proteins in a pcDNA3.1(+) vector were obtained from E. Kostenis. CRISPR/Cas9‐Gαq‐knockout (KO) HEK293 cells were from M. Yamaguchi. The protein sequences of the human and mouse Gαq proteins differ only by one amino acid in position 171 (alanine in human and serine in mouse). […]. After 16 hr, 3 ml of DMEM containing 10% FBS, 1% of a penicillin/streptomycin solution (final concentrations: penicillin = 100 U·ml^−1, streptomycin = 0.1 mg·ml^−1), and sodium butyrate (5 mM) was added to the packaging cells. They were kept at 32°C and 5% CO2 for 48 hr, during which the viral vectors containing the receptor sequence were produced and released into the surrounding medium. These were harvested, filtered ([…] filter pore diameter), and added to HEK293 cells that had previously been modified via CRISPR/Cas9 genome editing to lack Gαq expression. Polybrene solution (6 μl, 4 mg·ml^−1 in H2O, filtered) was added. After 2.5 hr, the virus‐containing medium was discarded, and DMEM supplemented with 10% FBS and 1% of a penicillin/streptomycin solution (final concentrations: penicillin = 100 U·ml^−1, streptomycin = 0.1 mg·ml^−1) was given to the cells. These were incubated for 2 days, followed by selection of successfully transfected cells with geneticin resistance by adding G418 (200 μg·ml^−1) to the medium. The cells were cultured in these media at 37°C and 10% CO2 until membrane preparations were generated.
(§2) Recombinant HEK cells were cultured to 70% of confluence. The culture medium was discarded, and cells were washed once with approximately 5 ml of PBS. Dishes were stored at −20°C until further use. After defrosting, cells were detached with a rubber scraper after adding 5‐mM Tris–HCl, 2‐mM EDTA, pH 7.4. The collected cell suspension was homogenized using an Ultra‐Turrax® for 1 min at a speed level of 4. The cell suspension was transferred into tubes and centrifuged for 10 min at 1,000 g, 4°C. The pellet (P1) was discarded, and the supernatant was centrifuged for 45 min at 48,400 g, 4°C. The resulting supernatant was discarded, and the pellet (P2) was resuspended in 50‐mM Tris–HCl, pH 7.4, and centrifuged again for 45 min at 48,400 g, 4°C. This step was repeated once again, and the suspension was subsequently homogenized using an Ultra‐Turrax® for 1 min at a speed level of 4 (IKA Laborechnik), transferred into cryovials, and stored at −80°C (for up to several months). […]
(§3) The experiments were performed in 50‐mM Tris–HCl buffer, pH 7.4. […] Non‐specific binding was determined in the presence of 5‐μM FR. […] Luma Safe® scintillation cocktail (2.5 ml) was added, and after 6 hr of incubation, the samples were counted for 1 min each, using a liquid scintillation counter (counting efficiency 53%). […]

Test [2] deals with T2, human Gα11 (Homo sapiens, UniProt P29992).
T2 construct: expressed in transfected cells; membrane preparations
T2 sequence (P29992 1-359): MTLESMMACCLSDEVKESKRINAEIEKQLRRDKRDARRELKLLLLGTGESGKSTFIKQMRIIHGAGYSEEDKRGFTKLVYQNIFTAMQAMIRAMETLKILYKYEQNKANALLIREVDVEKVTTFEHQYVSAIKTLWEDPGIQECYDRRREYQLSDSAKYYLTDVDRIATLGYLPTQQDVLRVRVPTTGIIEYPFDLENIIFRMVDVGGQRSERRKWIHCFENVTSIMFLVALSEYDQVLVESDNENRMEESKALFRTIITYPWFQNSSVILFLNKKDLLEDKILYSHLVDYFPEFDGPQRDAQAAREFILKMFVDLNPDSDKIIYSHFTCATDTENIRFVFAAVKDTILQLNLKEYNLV
In words: Competition binding at membranes of HEK-CRISPR-Cas9-Gαq-KO cells expressing Gα11. As to the method:
as §1, §2, §3

The subject of test [3] is Gq signalling via endogenously expressed M3 receptor. In words: Calcium mobilization assay, carbachol-induced (M3 receptor) in 1321N1 astrocytoma cells. It is filed as cell-based, human. The settings on record: Homo sapiens, versus Carbachol (EC80), M3 receptor, read-out: pIC50, inhibition of calcium mobilization (converted). How it is done: The functional activity of YM, FR, and Ebselen as Gq protein inhibitors was determined by assessing their ability to antagonize ADP‐induced calcium mobilization in 1321N1 astrocytoma cells stably transfected with the human P2Y1 receptor, which is a Gq‐coupled receptor. In addition, the compounds' inhibitory effects on Carbachol‐induced calcium mobilization were studied in the same cell line, which endogenously express the Gq‐coupled muscarinic M3 ACh receptor. The assays were performed according to a previously described procedure (Rafehi et al., 2017) using a NOVOstar microplate reader (BMG Labtech, Offenburg, Germany).
In general terms: Calcium assays in cells follow changes in intracellular calcium, usually with a dye or a luminescent sensor.

Turning to `C=C1C(=O)N[C@@H](C)C(=O)N(C)[C@@H](C)C(=O)N[C@@H]([C@H](OC(=O)[C@@H](NC(=O)CC)[C@H](O)C(C)C)C(C)C)C(=O)N(C)[C@@H]([C@@H](C)OC)C(=O)O[C@H](C(C)C)[C@H](NC(C)=O)C(=O)O[C@H](Cc2ccccc2)C(=O)N1C` [FR, FR900359] (Ac-[X1][dPhLac][NMeDha]A[NMeA][X1](Leu(3R-OH,Nα-propionyl))[NMeT](Me); ester 1-C), the results for the IC50 in test [1], in test [2] and in test [3] were 13.2 nM, 10.5 nM and 0.741 nM, respectively. In addition, the “Pseudo-Bmax ± SD” value in test [1] (FR versus [³H]PSB-15900 (5 nM), 37°C, Gq) was found to be 6.09 ± 0.59 pmol/mg; in test [2] (FR versus [³H]PSB-15900 (5 nM), 37°C, G11), 6.23 ± 1.39 pmol/mg.
With `C=C1C(=O)N[C@@H](C)C(=O)N(C)[C@@H](C)C(=O)N[C@@H]([C@H](OC(=O)[C@@H](NC(C)=O)[C@H](O)C(C)C)C(C)C)C(=O)N(C)[C@@H]([C@@H](C)OC)C(=O)O[C@H](C)[C@H](NC(C)=O)C(=O)O[C@H](Cc2ccccc2)C(=O)N1C` [YM, YM‐254890] (Ac-T[dPhLac][NMeDha]A[NMeA][Leu(3R-O(AcLeu(3R-OH)))][NMeT](Me); ester 1-C), the “Pseudo-Bmax ± SD” value was 6.04 ± 1.43 pmol/mg in test [1] (YM versus [³H]PSB-16254 (5 nM), 37°C, Gq) and 6.23 ± 2.92 pmol/mg in test [2] (YM versus [³H]PSB-16254 (5 nM), 37°C, G11). Moreover, the IC50 in test [1] (YM versus [³H]PSB-16254 (5 nM), 37°C, Gq, read-out: pIC50 ± SD (converted)) was 6.17 nM; in test [2] (YM versus [³H]PSB-16254 (5 nM), 37°C, G11, read-out: pIC50 ± SD (converted)), 8.71 nM; in test [3], 0.891 nM.
